Values quoted from earlier work, collected in patent US20030219387A1, “Local delivery of agents for disruption and inhibition of bacterial biofilm for treatment of periodontal disease” (priority 2000, published 2003).

In the case of `CC(=N)N1CC[C@H](Oc2ccc([C@H](Cc3ccc4ccc(C(=N)N)cc4c3)C(=O)O)cc2)C1` [DX-9065a], the inhibition of gingipain (gingipain) is listed as “can inhibit gingipain” and the “reduction of P. gingivalis growth” value (P. gingivalis) is listed as “selectively reduces P. gingivalis growth”.
